Measured values from patent publication US20240376084A1, “INHIBITORS OF ALPHA-HEMOLYSIN OF STAPHYLOCOCCUS AUREUS” (Helmholtz-Zentrum Fur Infektionsforschung GmbH, priority 2021, published 2024).

Tests used:
[1] = biological target: hemolysin alpha from Staphylococcus aureus (Staphylococcus aureus, UniProt P09616); experiment: cell-based
[2] = biological target: S. aureus Alpha hemolysin (Staphylococcus aureus, UniProt P09616); experiment: cell-based
Sequence of S. aureus Alpha hemolysin (P09616 27-319 limits assumed): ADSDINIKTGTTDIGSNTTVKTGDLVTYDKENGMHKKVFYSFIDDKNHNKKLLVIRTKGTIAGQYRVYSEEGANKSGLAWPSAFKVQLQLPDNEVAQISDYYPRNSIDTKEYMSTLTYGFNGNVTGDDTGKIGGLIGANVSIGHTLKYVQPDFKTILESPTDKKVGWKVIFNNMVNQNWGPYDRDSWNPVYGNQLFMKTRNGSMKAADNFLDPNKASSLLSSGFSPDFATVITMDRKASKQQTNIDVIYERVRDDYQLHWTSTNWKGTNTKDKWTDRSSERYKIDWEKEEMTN

Sequence of hemolysin alpha from Staphylococcus aureus (P09616 27-319 limits assumed): as above

SMILES | EC50 [1] [nM] | EC50 ([2]; A549-LDH Assay activity) [nM] | IC50 [1] [nM] | EC50 ([2]; LDH Assay EC50) [nM]
Cc1cc2[nH]c(=O)c(=O)[nH]c2cc1S(=O)(=O)Nc1ccc(C2=CCOCC2)cc1 [Compound 297, N-[4-(3,6-dihydro-2H-pyran-4-yl)phenyl]-7-methyl-2,3-dioxo-1,4-dihydroquinoxaline-6-sulfonamide] | 100 to 1000 | 100 to 1000 |  | 
CCOc1ccc(-c2ccc(NS(=O)(=O)c3cc4[nH]c(=O)c(=O)[nH]c4cc3C)cc2Cl)cc1 [Compound 319, N-[3-chloro-4-(4-ethoxyphenyl)phenyl]-7-methyl-2,3-dioxo-1,4-dihydroquinoxaline-6-sulfonamide] | 30 to 100 | 100 to 1000 |  | 
Cc1cc(NS(=O)(=O)c2cc3[nH]c(=O)c(=O)[nH]c3cc2Cl)ccc1Br [Compound 141, N-(4-bromo-3-methylphenyl)-7-chloro-2,3-dioxo-1,2,3,4-tetrahydroquinoxaline-6-sulfonamide] |  | 100 to 1000 | 100 to 1000 | 
Cc1cc2[nH]c(=O)c(=O)[nH]c2cc1S(=O)(=O)Nc1ccc(-c2cccc(C#N)c2)c(Cl)c1 [Compound 318, N-[3-chloro-4-(3-cyanophenyl)phenyl]-7-methyl-2,3-dioxo-1,4-dihydroquinoxaline-6-sulfonamide] | 30 to 100 | 100 to 1000 |  | 
Cc1cc2ccc(-c3ccc(NS(=O)(=O)c4cc5[nH]c(=O)c(=O)[nH]c5cc4C)cc3Cl)cc2[nH]1 [Compound 349, N-[3-chloro-4-(2-methyl-1H-indol-6-yl)phenyl]-7-methyl-2,3-dioxo-1,4-dihydroquinoxaline-6-sulfonamide] | < 30 | < 30 |  | 
Cc1cc2[nH]c(=O)c(=O)[nH]c2cc1S(=O)(=O)Nc1cc(C)c(-c2ccsc2)c(C)c1 [Compound 42, N-(3,5-dimethyl-4-(thiophen-3-yl)phenyl)-7-methyl-2,3-dioxo-1,2,3,4-tetrahydroquinoxaline-6-sulfonamide] |  | 100 to 1000 | 30 to 100 | 
C#Cc1cc(NS(=O)(=O)c2cc3[nH]c(=O)c(=O)[nH]c3cc2C)ccc1-c1ccc(OC)c(F)c1 [Compound 300, N-[3-ethynyl-4-(3-fluoro-4-methoxy-phenyl)phenyl]-7-methyl-2,3-dioxo-1,4-dihydroquinoxaline-6-sulfonamide] | < 30 | < 30 |  | 
Cc1cc2[nH]c(=O)c(=O)[nH]c2cc1S(=O)(=O)Nc1ccc(OC(F)(F)F)cc1 [drawing 469 (R^2 = CH3)] | 37 |  |  | 14
Cc1cc2[nH]c(=O)c(=O)[nH]c2cc1S(=O)(=O)Nc1ccc(-c2ccncc2)c(Cl)c1 [Compound 37, N-(3-chloro-4-(pyridin-4-yl)phenyl)-7-methyl-2,3-dioxo-1,2,3,4-tetrahydroquinoxaline-6-sulfonamide] |  | 30 to 100 | < 30 | 
O=c1[nH]c2cc(Cl)c(S(=O)(=O)Nc3ccc(-c4ccc(F)c(Cl)c4F)c(Cl)c3)cc2[nH]c1=O [Compound 105, 7-chloro-N-(2,3′-dichloro-2′,4′-difluoro-[1,1′-biphenyl]-4-yl)-2,3-dioxo-1,2,3,4-tetrahydroquinoxaline-6-sulfonamide] |  | 100 to 1000 | 100 to 1000 | 
Cc1cc2[nH]c(=O)c(=O)[nH]c2cc1S(=O)(=O)Nc1ccc(-c2ccc3c(c2)ncn3C)c(Cl)c1 [Compound 283, N-[3-chloro-4-(1-methylbenzimidazol-5-yl)phenyl]-7-methyl-2,3-dioxo-1,4-dihydroquinoxaline-6-sulfonamide] | 100 to 1000 | 100 to 1000 |  | 
Cc1cc2[nH]c(=O)c(=O)[nH]c2cc1S(=O)(=O)Nc1ccc(OC(F)(F)F)cc1 [Compound 28, 7-methyl-2,3-dioxo-N-(4-(trifluoromethoxy)phenyl)-1,2,3,4-tetrahydroquinoxaline-6-sulfonamide] |  | < 30 | < 30 | 
Cc1cc2[nH]c(=O)c(=O)[nH]c2cc1S(=O)(=O)Nc1ccc(-c2ccc(F)cc2)c(N(C)C)c1 [Compound 255, N-[3-(dimethylamino)-4-(4-fluorophenyl)phenyl]-7-methyl-2,3-dioxo-1,4-dihydroquinoxaline-6-sulfonamide] | 100 to 1000 | 100 to 1000 |  | 
Cc1cc2[nH]c(=O)c(=O)[nH]c2cc1S(=O)(=O)Nc1ccc(-c2cccc(P(C)(C)=O)c2)c(Cl)c1 [Compound 312, N-[3-chloro-4-(3-dimethylphosphorylphenyl)phenyl]-7-methyl-2,3-dioxo-1,4-dihydroquinoxaline-6-sulfonamide] | 100 to 1000 | 100 to 1000 |  | 
Cc1cc2[nH]c(=O)c(=O)[nH]c2cc1S(=O)(=O)Nc1ccc(-c2cccc(N(C)C)c2)c(Cl)c1 [Compound 4, N-(2-chloro-3′-(dimethylamino)-[1,1′-biphenyl]-4-yl)-7-methyl-2,3-dioxo-1,2,3,4-tetrahydroquinoxaline-6-sulfonamide] |  | 30 to 100 | < 30 | 
Cc1cc2[nH]c(=O)c(=O)[nH]c2cc1S(=O)(=O)Nc1ccc(-c2cccc(C(F)(F)F)c2)c(Cl)c1 [Compound 316, N-[3-chloro-4-[3-(trifluoromethyl)phenyl]phenyl]-7-methyl-2,3-dioxo-1,4-dihydroquinoxaline-6-sulfonamide] | 30 to 100 | 1000 to 6000 |  | 

SMILES | EC50 [1] [nM] | EC50 ([2]; A549-LDH Assay activity) [nM] | IC50 [1] [nM] | EC50 ([2]; LDH Assay EC50) [nM]
Cc1cc2[nH]c(=O)c(=O)[nH]c2cc1S(=O)(=O)Nc1cc(C)c(-c2cc[nH]c2)c(C)c1 [Compound 135, N-(3,5-dimethyl-4-(1H-pyrrol-3-yl)phenyl)-7-methyl-2,3-dioxo-1,2,3,4-tetrahydroquinoxaline-6-sulfonamide] |  | 100 to 1000 | 100 to 1000 | 
Cc1cc2[nH]c(=O)c(=O)[nH]c2cc1S(=O)(=O)Nc1ccc(-c2cccc(OCCN(C)C)c2)c(Cl)c1 [Compound 331, N-[3-chloro-4-[3-[2-(dimethylamino)ethoxy]phenyl]phenyl]-7-methyl-2,3-dioxo-1,4-dihydroquinoxaline-6-sulfonamide] | 100 to 1000 | 100 to 1000 |  | 
Cc1cc2[nH]c(=O)c(=O)[nH]c2cc1S(=O)(=O)Nc1ccc(-c2ccc(Cl)c(Cl)c2)c(Cl)c1 [Compound 257, N-[3-chloro-4-(3,4-dichlorophenyl)phenyl]-7-methyl-2,3-dioxo-1,4-dihydroquinoxaline-6-sulfonamide] | < 30 | 30 to 100 |  | 
Cc1cc(NS(=O)(=O)c2ccc3[nH]c(=O)c(=O)[nH]c3c2)ccc1Br [drawing 471 (R^2 = H), reference compound] | 1690 |  |  | 346
CCCc1ccc(NS(=O)(=O)c2cc3[nH]c(=O)c(=O)[nH]c3cc2Br)cc1 [Compound 41, 7-bromo-2,3-dioxo-N-(4-propylphenyl)-1,2,3,4-tetrahydroquinoxaline-6-sulfonamide] |  | 30 to 100 | 30 to 100 | 
O=c1[nH]c2cc(F)c(S(=O)(=O)Nc3ccc(-c4ccccc4F)c(Cl)c3)cc2[nH]c1=O [Compound 36, N-(2-chloro-2′-fluoro-[1,1′-biphenyl]-4-yl)-7-fluoro-2,3-dioxo-1,2,3,4-tetrahydroquinoxaline-6-sulfonamide] |  | 100 to 1000 | < 30 | 
Cc1cc2[nH]c(=O)c(=O)[nH]c2cc1S(=O)(=O)Nc1ccc(-c2cccc(C(N)=O)c2)c(Cl)c1 [Compound 245, 3-[2-chloro-4-[(7-methyl-2,3-dioxo-1,4-dihydroquinoxalin-6-yl)sulfonylamino]phenyl] benzamide] | < 30 | 30 to 100 |  | 
Cc1cc2[nH]c(=O)c(=O)[nH]c2cc1S(=O)(=O)Nc1ccc(-c2csc(C#N)c2)c(Cl)c1 [Compound 290, N-[3-chloro-4-(5-cyano-3-thienyl)phenyl]-7-methyl-2,3-dioxo-1,4-dihydroquinoxaline-6-sulfonamide] | < 30 | 30 to 100 |  | 
Cc1cc2[nH]c(=O)c(=O)[nH]c2cc1S(=O)(=O)Nc1ccc(-c2ccc(C#N)cc2)c(Br)c1 [Compound 298, N-[3-bromo-4-(4-cyanophenyl)phenyl]-7-methyl-2,3-dioxo-1,4-dihydroquinoxaline-6-sulfonamide] | < 30 | 30 to 100 |  | 
Cc1ccccc1-c1ccc(NS(=O)(=O)c2cc3[nH]c(=O)c(=O)[nH]c3cc2C)cc1C [Compound 103, N-(2,2′-dimethyl-[1,1′-biphenyl]-4-yl)-7-methyl-2,3-dioxo-1,2,3,4-tetrahydroquinoxaline-6-sulfonamide] |  | 100 to 1000 | 100 to 1000 | 
Cc1cc2[nH]c(=O)c(=O)[nH]c2cc1S(=O)(=O)Nc1ccc(-c2ccc3cccnc3c2)c(C(F)(F)F)c1 [Compound 365, 7-methyl-2,3-dioxo-N-[4-(7-quinolyl)-3-(trifluoromethyl)phenyl]-1,4-dihydroquinoxaline-6-sulfonamide] | < 30 | 100 to 1000 |  | 
CCCc1ccc(NS(=O)(=O)c2cc3[nH]c(=O)c(=O)[nH]c3cc2Cl)cc1 [Compound 55, 7-chloro-2,3-dioxo-N-(4-propylphenyl)-1,2,3,4-tetrahydroquinoxaline-6-sulfonamide] |  | 30 to 100 | 30 to 100 | 
Cc1cc(C)cc(-c2ccc(NS(=O)(=O)c3cc4[nH]c(=O)c(=O)[nH]c4cc3C)cc2Cl)c1 [Compound 248, N-[3-chloro-4-(3,5-dimethylphenyl)phenyl]-7-methyl-2,3-dioxo-1,4-dihydroquinoxaline-6-sulfonamide] | 100 to 1000 | 100 to 1000 |  | 
Cc1cc2[nH]c(=O)c(=O)[nH]c2cc1S(=O)(=O)Nc1ccc(-c2ccccc2Cl)c(Cl)c1 [Compound 77, N-(2,2′-dichloro-[1,1′-biphenyl]-4-yl)-7-methyl-2,3-dioxo-1,2,3,4-tetrahydroquinoxaline-6-sulfonamide] |  | 100 to 1000 | 100 to 1000 | 
Cc1cc2[nH]c(=O)c(=O)[nH]c2cc1S(=O)(=O)Nc1ccc(-c2ccccc2Cl)cc1 [Compound 108, N-(2′-chloro-[1,1′-biphenyl]-4-yl)-7-methyl-2,3-dioxo-1,2,3,4-tetrahydroquinoxaline-6-sulfonamide] |  | 100 to 1000 | 100 to 1000 | 
O=c1[nH]c2ccc(S(=O)(=O)Nc3ccc(OC(F)(F)F)cc3)cc2[nH]c1=O [drawing 469 (R^2 = H), reference compound] | 290 |  |  | 241
